{"source": "the OligoGym collection", "target": "SNHG14", "details": "ASO", "key": {"[1]": {"details": "Mouse Primary Neuronal Cell, 0.005 µM"}}, "note": "After the bases stand the sugars from the 5' end (letter, count) and the backbone: PS all phosphorothioate, else s phosphorothioate and o phosphodiester by linkage. Methylation of C is not given here. l = locked nucleic acid (LNA); d = 2'-deoxy (DNA)", "data": [{"sequence": "AAAATCTCAACTACCATTT (sugars l3 d10 l6, PS)", "values": [{"measurement": "target mRNA inhibition", "setting": "Human Neuronal Cell, 7.5 µM", "value": 48, "unit": "%"}]}, {"sequence": "AAAATCTCAACTACCATTT (sugars l6 d9 l4, PS)", "values": [{"measurement": "target mRNA inhibition", "setting": "Human Neuronal Cell, 7.5 µM", "value": 23, "unit": "%"}]}, {"sequence": "AAAATCTCAACTACCATTT (sugars llddlldddddddlldlll, PS)", "values": [{"measurement": "target mRNA inhibition", "setting": "Human Neuronal Cell, 7.5 µM", "value": 52, "unit": "%"}]}, {"sequence": "AAAATCTCAACTACCATTTT (sugars lddllldddddddldldlll, PS)", "values": [{"measurement": "target mRNA inhibition", "setting": "Human Neuronal Cell, 7.5 µM", "value": 36, "unit": "%"}]}, {"sequence": "AAAATCTCAACTACCATTTT (sugars llddllddddddddddldll, PS)", "values": [{"measurement": "target mRNA inhibition", "setting": "Human Neuronal Cell, 7.5 µM", "value": 23, "unit": "%"}]}, {"sequence": "AAAATTATTTATACACCATC (sugars l1 d2 l2 d9 l6, PS)", "values": [{"measurement": "target mRNA inhibition", "setting": "Human Neuronal Cell, 7.5 µM", "value": 56, "unit": "%"}]}, {"sequence": "AAAATTATTTATACACCATC (sugars ldlllllddddddlldddll, PS)", "values": [{"measurement": "target mRNA inhibition", "setting": "Human Neuronal Cell, 7.5 µM", "value": 61, "unit": "%"}]}, {"sequence": "AAAATTATTTATACACCATC (sugars lllllllddddddldlddll, PS)", "values": [{"measurement": "target mRNA inhibition", "setting": "Human Neuronal Cell, 7.5 µM", "value": 49, "unit": "%"}]}, {"sequence": "AAACTCTTGCATCTACT (sugars l2 d13 l2, PS)", "values": [{"measurement": "target mRNA inhibition", "setting": "Human Neuronal Cell, 0.2 µM", "value": 19, "unit": "%"}, {"measurement": "target mRNA inhibition", "setting": "Human Neuronal Cell, 1 µM", "value": 41, "unit": "%"}]}, {"sequence": "AAACTGTACACCTACT (sugars l2 d10 l4, PS)", "values": [{"measurement": "target mRNA inhibition", "setting": "Human Neuronal Cell, 0.2 µM", "value": 31, "unit": "%"}, {"measurement": "target mRNA inhibition", "setting": "Human Neuronal Cell, 1 µM", "value": 44, "unit": "%"}]}, {"sequence": "AAAGATCATTCTCAACAA (sugars l5 d10 l3, PS)", "values": [{"measurement": "target mRNA inhibition", "setting": "Human Neuronal Cell, 7.5 µM", "value": 64, "unit": "%"}]}, {"sequence": "AAATATTGCCACCATT (sugars l2 d10 l4, PS)", "values": [{"measurement": "target mRNA inhibition", "setting": "Human Neuronal Cell, 0.2 µM", "value": 51, "unit": "%"}, {"measurement": "target mRNA inhibition", "setting": "Human Neuronal Cell, 1 µM", "value": 63, "unit": "%"}]}, {"sequence": "AAATCTCAACTACCATTTTT (sugars ldlddldddddddllddlll, PS)", "values": [{"measurement": "target mRNA inhibition", "setting": "Human Neuronal Cell, 7.5 µM", "value": 29, "unit": "%"}]}, {"sequence": "AAATCTCAACTACCATTTTT (sugars ldllldddddddddddldll, PS)", "values": [{"measurement": "target mRNA inhibition", "setting": "Human Neuronal Cell, 7.5 µM", "value": 45, "unit": "%"}]}, {"sequence": "AAATCTCAACTACCATTTTT (sugars llldldddddddddlldlll, PS)", "values": [{"measurement": "target mRNA inhibition", "setting": "Human Neuronal Cell, 7.5 µM", "value": -2, "unit": "%"}]}, {"sequence": "AAATCTCAACTACCATTTTT (sugars llldldlddddddddddlll, PS)", "values": [{"measurement": "target mRNA inhibition", "setting": "Human Neuronal Cell, 7.5 µM", "value": 34, "unit": "%"}]}, {"sequence": "AAATTTCCAAACCTTTC (sugars l2 d11 l4, PS)", "values": [{"measurement": "target mRNA inhibition", "setting": "Human Neuronal Cell, 0.2 µM", "value": 42, "unit": "%"}, {"measurement": "target mRNA inhibition", "setting": "Human Neuronal Cell, 1 µM", "value": 53, "unit": "%"}]}, {"sequence": "AAGATCATTCTCAACAAT (sugars lllldldddddddlldll, PS)", "values": [{"measurement": "target mRNA inhibition", "setting": "Human Neuronal Cell, 7.5 µM", "value": 19, "unit": "%"}]}, {"sequence": "AATTATTTATACACCATCAT (sugars lddddldddddddlldldll, PS)", "values": [{"measurement": "target mRNA inhibition", "setting": "Human Neuronal Cell, 7.5 µM", "value": 60, "unit": "%"}]}, {"sequence": "AATTATTTATACACCATCAT (sugars lldldlddddddddllldll, PS)", "values": [{"measurement": "target mRNA inhibition", "setting": "Human Neuronal Cell, 7.5 µM", "value": 59, "unit": "%"}]}, {"sequence": "AATTTTTTTCTTACTATCTT (sugars l1 d12 l1 d2 l4, PS)", "values": [{"measurement": "target mRNA inhibition", "setting": "Human Neuronal Cell, 7.5 µM", "value": 62, "unit": "%"}]}, {"sequence": "AATTTTTTTCTTACTATCTT (sugars ldlllldddddddlddddll, PS)", "values": [{"measurement": "target mRNA inhibition", "setting": "Human Neuronal Cell, 7.5 µM", "value": 55, "unit": "%"}]}, {"sequence": "AATTTTTTTCTTACTATCTT (sugars llddlldddddddldlldll, PS)", "values": [{"measurement": "target mRNA inhibition", "setting": "Human Neuronal Cell, 7.5 µM", "value": 61, "unit": "%"}]}, {"sequence": "AATTTTTTTCTTACTATCTT (sugars lldldlddddddddlddlll, PS)", "values": [{"measurement": "target mRNA inhibition", "setting": "Human Neuronal Cell, 7.5 µM", "value": 43, "unit": "%"}]}, {"sequence": "ACAACTTCTATCATAC (sugars l3 d10 l3, PS)", "values": [{"measurement": "target mRNA inhibition", "setting": "Human Neuronal Cell, 0.2 µM", "value": 44, "unit": "%"}, {"measurement": "target mRNA inhibition", "setting": "Human Neuronal Cell, 1 µM", "value": 55, "unit": "%"}]}, {"sequence": "ACACATCTTGTATACA (sugars l4 d10 l2, PS)", "values": [{"measurement": "target mRNA inhibition", "setting": "Human Neuronal Cell, 0.2 µM", "value": 49, "unit": "%"}, {"measurement": "target mRNA inhibition", "setting": "Human Neuronal Cell, 1 µM", "value": 56, "unit": "%"}]}, {"sequence": "ACATCTCATACTTGCT (sugars l4 d10 l2, PS)", "values": [{"measurement": "target mRNA inhibition", "setting": "[1]", "value": 94.8, "unit": "%"}]}, {"sequence": "ACATCTCATACTTGCTT (sugars l2 d13 l2, PS)", "values": [{"measurement": "target mRNA inhibition", "setting": "Human Neuronal Cell, 0.2 µM", "value": 1, "unit": "%"}, {"measurement": "target mRNA inhibition", "setting": "Human Neuronal Cell, 1 µM", "value": 8, "unit": "%"}, {"measurement": "target mRNA inhibition", "setting": "Human Neuronal Cell, 5 µM", "value": 7, "unit": "%"}, {"measurement": "target mRNA inhibition", "setting": "[1]", "value": 90.7, "unit": "%"}]}, {"sequence": "ACATTATTAACCACCT (sugars l3 d10 l3, PS)", "values": [{"measurement": "target mRNA inhibition", "setting": "Human Neuronal Cell, 0.2 µM", "value": 62, "unit": "%"}, {"measurement": "target mRNA inhibition", "setting": "Human Neuronal Cell, 1 µM", "value": 64, "unit": "%"}]}, {"sequence": "ACCACCTTAAGTAACA (sugars l4 d10 l2, PS)", "values": [{"measurement": "target mRNA inhibition", "setting": "Human Neuronal Cell, 0.2 µM", "value": 27, "unit": "%"}, {"measurement": "target mRNA inhibition", "setting": "Human Neuronal Cell, 1 µM", "value": 33, "unit": "%"}]}, {"sequence": "ACCTACATCTCATACT (sugars l4 d10 l2, PS)", "values": [{"measurement": "target mRNA inhibition", "setting": "Human Neuronal Cell, 0.2 µM", "value": 14, "unit": "%"}, {"measurement": "target mRNA inhibition", "setting": "Human Neuronal Cell, 1 µM", "value": -14, "unit": "%"}, {"measurement": "target mRNA inhibition", "setting": "Human Neuronal Cell, 5 µM", "value": 33, "unit": "%"}, {"measurement": "target mRNA inhibition", "setting": "[1]", "value": 93.8, "unit": "%"}]}, {"sequence": "ACTCTGCAATACACCAA (sugars l4 d8 l1 d2 l2, PS)", "values": [{"measurement": "target mRNA inhibition", "setting": "Human Neuronal Cell, 7.5 µM", "value": 57, "unit": "%"}]}, {"sequence": "ACTCTGCAATACACCAA (sugars lldllddddddllddll, PS)", "values": [{"measurement": "target mRNA inhibition", "setting": "Human Neuronal Cell, 7.5 µM", "value": 38, "unit": "%"}]}, {"sequence": "ACTGTTTATACCCTTTC (sugars l1 d11 l1 d1 l3, PS)", "values": [{"measurement": "target mRNA inhibition", "setting": "Human Neuronal Cell, 7.5 µM", "value": 59, "unit": "%"}]}, {"sequence": "ACTGTTTATACCCTTTC (sugars l1 d11 l1 d2 l2, PS)", "values": [{"measurement": "target mRNA inhibition", "setting": "Human Neuronal Cell, 7.5 µM", "value": 56, "unit": "%"}]}, {"sequence": "ACTGTTTATACCCTTTC (sugars lddldddddddldddll, PS)", "values": [{"measurement": "target mRNA inhibition", "setting": "Human Neuronal Cell, 7.5 µM", "value": 53, "unit": "%"}]}, {"sequence": "ACTGTTTATACCCTTTCC (sugars l1 d2 l1 d12 l2, PS)", "values": [{"measurement": "target mRNA inhibition", "setting": "Human Neuronal Cell, 7.5 µM", "value": 46, "unit": "%"}]}, {"sequence": "ACTGTTTATACCCTTTCC (sugars l2 d14 l2, PS)", "values": [{"measurement": "target mRNA inhibition", "setting": "Human Neuronal Cell, 0.2 µM", "value": 36, "unit": "%"}, {"measurement": "target mRNA inhibition", "setting": "Human Neuronal Cell, 1 µM", "value": 50, "unit": "%"}]}, {"sequence": "ACTGTTTATACCCTTTCC (sugars lddlddddddddddldll, PS)", "values": [{"measurement": "target mRNA inhibition", "setting": "Human Neuronal Cell, 7.5 µM", "value": 62, "unit": "%"}]}, {"sequence": "ACTTAATTATACTTCC (sugars l4 d10 l2, PS)", "values": [{"measurement": "target mRNA inhibition", "setting": "Human Neuronal Cell, 0.2 µM", "value": 62, "unit": "%"}, {"measurement": "target mRNA inhibition", "setting": "Human Neuronal Cell, 1 µM", "value": 64, "unit": "%"}]}, {"sequence": "ACTTCACACCTATTATAT (sugars l3 d12 l3, PS)", "values": [{"measurement": "target mRNA inhibition", "setting": "Human Neuronal Cell, 0.2 µM", "value": 21, "unit": "%"}, {"measurement": "target mRNA inhibition", "setting": "Human Neuronal Cell, 1 µM", "value": 45, "unit": "%"}]}, {"sequence": "AGATCATTCTCAACAATT (sugars l3 d1 l1 d9 l4, PS)", "values": [{"measurement": "target mRNA inhibition", "setting": "Human Neuronal Cell, 7.5 µM", "value": 43, "unit": "%"}]}, {"sequence": "AGATCATTCTCAACAATT (sugars ldldlldddddddlllll, PS)", "values": [{"measurement": "target mRNA inhibition", "setting": "Human Neuronal Cell, 7.5 µM", "value": 32, "unit": "%"}]}, {"sequence": "AGATCATTCTCAACAATTA (sugars ldddlddddddddlldlll, PS)", "values": [{"measurement": "target mRNA inhibition", "setting": "Human Neuronal Cell, 7.5 µM", "value": 63, "unit": "%"}]}]}
